18 molecules from patent publication US11230547B2, “Purine inhibitors of human phosphatidylinositol 3-kinase delta” (Merck Sharp & Dohme Corp., priority 2017, dated 2022) can be followed below.

One experiment has as its target PI3Kdelta (Homo sapiens (Human), UniProt O00329). Kind of experiment: HTRF PI3K biochemical assay, delta isoform. Particulars: 0.3 nM enzyme, 100 uM ATP, 5 uM PIP2, form screened per table. The text has this:
(§1) HTRF PI3K Biochemical Assay to Measure Intrinsic Potency of Compound Inhibitors
(§2) The PI3-Kinase biochemical assays were developed to measure the intrinsic potency and compound dependent inhibition of the alpha, beta, delta, and gamma PI3K isoform enzymes. This assay was developed and further optimized from a kit produced by Upstate (Millipore catalog #33-047) (Millipore Sigma, Billerica Mass., USA) and has been configured for high throughput screening (HTS) and structure-activity relationship (SAR) screening. Briefly, this procedure exploits the exquisite specificity and high affinity binding of […] phosphatidyl(3,4,5)triphosphate (PIP3) to the GRP1 pleckstrin homology (PH) domain to generate the signal. In the absence of PIP3, an HTRF (Homogeneous Time-Resolved Fluorescence energy transfer) complex is formed consisting of europium (u)-labeled anti-GST, GST tagged GRP1-PH domain, biotin-PIP3 (biotinylated-PIP3) and streptavidin conjugated APC (Allophycocyanin). The native PIP3 produced by PI3-Kinase activity disrupts in a competitive manner the biotin-PIP3 from the pleckstrin homology (PH) domain, resulting in the loss of energy transfer (HTRF complex) and a decrease in the signal. The format of this assay is the same for all 4 isoforms of PI3K; the differences lie in the concentration of enzyme used to achieve robust assay window. The alpha, beta, and delta assays are run at 0.5, 1, and 0.3 nM enzymes and the gamma assay is run at 5 nM enzyme. The ATP concentration is 100 uM in the alpha, beta, and delta assays and 50 uM adenosine triphosphate (ATP) in the gamma assay. All reactions are run at 5 uM PIP2.
(§3) Compounds are serially diluted (3-fold in 100% DMSO) across a 384-well polypropylene source plated from column 3 to column 12 and column 13 to column 22, to yield 10 concentration dose response for each test compound. Columns 1, 2, 23 and 24 contain either only DMSO or pharmacological known control inhibitor. Once titrations are made, 2.5 nL of the compounds on 384 well plates are reformatted and transferred by acoustic dispense in quadruplicates to a 1536 assay plate (Greiner) to assay across all four PI3K isoform enzymes.
(§4) The PI3-Kinase biochemical assay was optimized using the HTRF kit provided by Upstate (Millipore). The assay kit contains six reagents: 1) 4× Reaction Buffer; 2) native PIP2 (substrate); 3) Stop (EDTA); 4) Detection Mix A (Streptavidin-APC); 5) Detection Mix B (Eu-labeled Anti-GST plus GST-tagged PH-domain); 6) Detection Mix C. In addition, the following items were obtained or purchased; PI3Kinase (catalog #'s alpha 14-602, beta 14-603, gamma 14-558 and delta 14-604 from Upstate Biotechnology now EMD Millipore, Mahopac, N.Y., USA), dithiothreitol (Sigma-Aldrich Corp. (St. Louis, Mo., USA) Catalog #D-5545), Adenosine-5′ triphosphate (InVitrogen (Waltham, Mass., USA), Cat#AS001A), native PIP3 (PI(3,4,5)P3, diC8, H^+, CELLSIGNALS, INC., (Columbus, Ohio, USA) Cat #907) DMSO ((Sigma-Aldrich Corp. (St. Louis, Mo., USA) Catalog #472301).
(§5) PI3Kinase Reaction Buffer is prepared by dilution the stock 1:4 with de-ionized water. DTT (DL-Dithiothreitol), phosphatidylinositol 4,5-bisphosphate (PIP2) and Biotin-PIP3 were added to 1536 assay plate at a final concentration of 5 mM, […] and 25 nM on the day of use. Enzyme addition and compound pre-incubation are initiated by the addition of 1.25 ul of PI3K (at twice its final concentration) in the 1× reaction buffer to all wells using a BioRaptr™ (Beckman Coulter, Waltham, Mass. USA). Plates are incubated at room temperature for 15 minutes. Reactions are initiated by addition of 1.25 ul of 2× substrate solution (PIP2 and ATP in 1× reaction buffer) using BioRaptr™. Plates are incubated in humidified chamber at room temperature for one hour. Reactions are quenched by addition of 0.625 uL of stop solution to all wells using the BioRaptr™. […]
For orientation: TR-FRET usually uses a lanthanide donor and a delayed reading to cut background.

A further experiment concerns the target PI3Kalpha (Homo sapiens (Human), UniProt P42336). Briefly: HTRF PI3K biochemical assay, alpha isoform (selectivity versus delta). The conditions noted are these: relative ratio PI3K-alpha IC50 value / PI3K-delta IC50 value.
Text: as §1, §2, §3, §4, §5

What is called IC50 is the midpoint of a concentration-inhibition curve.

PI3Kdelta, sequence (O00329 whole entry, canonical isoform): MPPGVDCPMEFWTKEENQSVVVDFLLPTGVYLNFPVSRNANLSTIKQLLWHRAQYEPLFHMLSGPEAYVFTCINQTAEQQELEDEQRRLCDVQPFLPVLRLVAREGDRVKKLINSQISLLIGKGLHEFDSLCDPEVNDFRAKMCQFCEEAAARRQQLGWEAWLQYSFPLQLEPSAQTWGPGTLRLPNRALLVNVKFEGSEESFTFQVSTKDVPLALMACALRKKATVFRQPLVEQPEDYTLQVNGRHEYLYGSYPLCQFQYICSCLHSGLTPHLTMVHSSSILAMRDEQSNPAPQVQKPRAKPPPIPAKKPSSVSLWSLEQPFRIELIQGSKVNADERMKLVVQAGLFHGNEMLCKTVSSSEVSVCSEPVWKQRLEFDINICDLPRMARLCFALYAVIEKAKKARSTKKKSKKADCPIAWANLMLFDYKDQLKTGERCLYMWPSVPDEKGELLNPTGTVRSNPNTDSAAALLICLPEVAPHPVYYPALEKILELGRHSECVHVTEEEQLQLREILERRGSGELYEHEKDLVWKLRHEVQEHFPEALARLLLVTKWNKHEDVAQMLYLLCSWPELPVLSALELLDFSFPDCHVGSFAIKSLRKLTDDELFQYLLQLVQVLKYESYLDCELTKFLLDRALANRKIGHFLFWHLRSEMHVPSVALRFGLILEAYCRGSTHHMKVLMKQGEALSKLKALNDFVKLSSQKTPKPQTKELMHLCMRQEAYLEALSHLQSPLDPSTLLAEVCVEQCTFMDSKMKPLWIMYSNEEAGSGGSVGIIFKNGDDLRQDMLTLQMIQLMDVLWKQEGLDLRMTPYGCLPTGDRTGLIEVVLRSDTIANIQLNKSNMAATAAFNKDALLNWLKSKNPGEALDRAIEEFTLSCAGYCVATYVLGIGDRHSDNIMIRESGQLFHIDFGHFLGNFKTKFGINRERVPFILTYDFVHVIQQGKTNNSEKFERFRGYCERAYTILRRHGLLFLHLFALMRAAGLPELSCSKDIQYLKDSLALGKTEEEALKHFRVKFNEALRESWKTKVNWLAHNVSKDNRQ
PI3Kdelta, sequence (P27986 whole entry partner, canonical isoform): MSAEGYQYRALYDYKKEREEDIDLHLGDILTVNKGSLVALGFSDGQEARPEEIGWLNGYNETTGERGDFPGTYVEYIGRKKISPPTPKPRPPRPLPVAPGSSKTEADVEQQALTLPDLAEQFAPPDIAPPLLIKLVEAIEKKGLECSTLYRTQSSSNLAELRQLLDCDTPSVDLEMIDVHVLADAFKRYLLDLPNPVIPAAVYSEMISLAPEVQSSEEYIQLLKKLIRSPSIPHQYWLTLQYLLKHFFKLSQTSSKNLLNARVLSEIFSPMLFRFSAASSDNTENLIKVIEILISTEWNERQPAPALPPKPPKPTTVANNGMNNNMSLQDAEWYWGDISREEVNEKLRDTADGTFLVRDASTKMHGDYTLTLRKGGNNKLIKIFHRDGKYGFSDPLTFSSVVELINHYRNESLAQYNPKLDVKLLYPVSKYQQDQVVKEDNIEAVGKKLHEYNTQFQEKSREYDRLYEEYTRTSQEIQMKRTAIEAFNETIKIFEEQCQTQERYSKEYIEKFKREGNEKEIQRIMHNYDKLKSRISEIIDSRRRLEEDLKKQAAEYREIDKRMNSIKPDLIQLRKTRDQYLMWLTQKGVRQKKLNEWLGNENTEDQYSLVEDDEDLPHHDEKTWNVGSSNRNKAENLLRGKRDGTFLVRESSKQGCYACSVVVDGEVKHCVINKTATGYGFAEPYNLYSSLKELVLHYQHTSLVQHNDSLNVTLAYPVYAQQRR
PI3Kalpha, sequence (P42336 whole entry, canonical isoform): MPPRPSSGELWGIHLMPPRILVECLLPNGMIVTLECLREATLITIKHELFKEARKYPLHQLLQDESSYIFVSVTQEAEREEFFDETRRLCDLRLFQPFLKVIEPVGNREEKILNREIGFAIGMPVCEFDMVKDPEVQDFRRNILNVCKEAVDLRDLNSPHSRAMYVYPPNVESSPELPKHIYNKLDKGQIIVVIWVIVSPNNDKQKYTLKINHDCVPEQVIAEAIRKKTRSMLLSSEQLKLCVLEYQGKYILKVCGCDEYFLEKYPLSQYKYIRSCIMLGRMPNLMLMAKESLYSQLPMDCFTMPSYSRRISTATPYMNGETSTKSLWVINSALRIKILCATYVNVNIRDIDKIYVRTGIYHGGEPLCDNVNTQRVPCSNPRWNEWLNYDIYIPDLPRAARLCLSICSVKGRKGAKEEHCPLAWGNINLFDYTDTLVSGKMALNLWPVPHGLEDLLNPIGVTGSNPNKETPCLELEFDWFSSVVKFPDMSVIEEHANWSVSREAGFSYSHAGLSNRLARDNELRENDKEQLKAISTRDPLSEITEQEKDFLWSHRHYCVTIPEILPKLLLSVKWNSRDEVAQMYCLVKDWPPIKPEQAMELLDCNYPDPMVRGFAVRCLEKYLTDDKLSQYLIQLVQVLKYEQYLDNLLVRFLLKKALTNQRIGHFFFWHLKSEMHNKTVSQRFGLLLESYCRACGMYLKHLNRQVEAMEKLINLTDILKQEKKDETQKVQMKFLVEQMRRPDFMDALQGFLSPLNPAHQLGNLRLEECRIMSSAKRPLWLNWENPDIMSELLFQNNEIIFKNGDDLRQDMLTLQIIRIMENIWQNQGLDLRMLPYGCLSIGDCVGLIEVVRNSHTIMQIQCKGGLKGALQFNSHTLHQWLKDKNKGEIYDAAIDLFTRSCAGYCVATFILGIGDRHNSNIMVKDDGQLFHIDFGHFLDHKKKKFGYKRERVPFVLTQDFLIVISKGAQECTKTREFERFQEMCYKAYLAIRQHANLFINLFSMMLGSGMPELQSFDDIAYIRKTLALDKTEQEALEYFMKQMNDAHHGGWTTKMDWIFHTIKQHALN
PI3Kalpha, sequence (P27986 whole entry partner, canonical isoform): as the sequence (P27986 whole entry partner, canonical isoform) above

`Cn1cc(-c2ncc(C#N)c(N3CC4C[C@H]3CN4c3cccc(C#N)c3)n2)cn1` (stereo in doubt) [Compound 1-1, 4-[(1S,4R)-5-(3-cyanophenyl)-2,5-diazabicyclo[2.2.1]hept-2-yl]-2-(1-methyl-1H-pyrazol-4-yl)pyrimidine-5-carbonitrile]: the midpoint of inhibition against PI3Kdelta, the IC50, lay at 69 nM. Besides, the “Selectivity versus PI3Kalpha” value on PI3Kalpha is above 10.

`N#Cc1cnc(-c2cnn3ccccc23)nc1N1C[C@@H]2CC1CN2c1cccc(F)c1` (stereo in doubt) [Compound 1-2, 4-[(1R,4S)-5-(3-fluorophenyl)-2,5-diazabicyclo[2.2.1]hept-2-yl]-2-pyrazolo[1,5-a]pyridin-3-ylpyrimidine-5-carbonitrile]: the concentration for half-maximal inhibition (IC50) on PI3Kdelta was 51 nM. Further, on PI3Kalpha, the “Selectivity versus PI3Kalpha” value is listed as above 10.

With `N#Cc1cnc(N2Cc3cn[nH]c3C2)nc1N1CC2C[C@H]1CN2c1cccc(F)c1` (stereo in doubt) [Compound 1-3, 2-(4,6-dihydropyrrolo[3,4-c]pyrazol-5(1H)-yl)-4-[(1S,4R)-5-(3-fluorophenyl)-2,5-diazabicyclo[2.2.1]hept-2-yl]pyrimidine-5-carbonitrile], half-maximal inhibition against PI3Kdelta (IC50) was put at 86 nM. For the same molecule, on PI3Kalpha, the “Selectivity versus PI3Kalpha” value is above 10.

`Cn1cc(-c2ncc(C#N)c(N3CC4C[C@H]3CN4c3ccc(C(F)F)nc3)n2)cn1` (stereo in doubt) [Compound 1-4, 4-{(1S,4R)-5-[6-(difluoromethyl)pyridin-3-yl]-2,5-diazabicyclo[2.2.1]hept-2-yl}-2-(1-methyl-1H-pyrazol-4-yl)pyrimidine-5-carbonitrile] displayed an IC50 at PI3Kdelta of 540 nM. Besides, the “Selectivity versus PI3Kalpha” value at PI3Kalpha is listed as above 10.

In turn, `Cn1cc(-c2ncc(C#N)c(N3CC4C[C@H]3CN4c3cccc(C(C)(C)O)c3)n2)cn1` (stereo in doubt) [Compound 1-5, 4-{(1S,4R)-5-[3-(1-hydroxy-1-methylethyl)phenyl]-2,5-diazabicyclo[2.2.1]hept-2-yl}-2-(1-methyl-1H-pyrazol-4-yl)pyrimidine-5-carbonitrile] displayed an IC50 on PI3Kdelta of 220 nM. Besides, at PI3Kalpha, the “Selectivity versus PI3Kalpha” value is on record as above 10.

The molecule `Cn1cc(-c2ncc(C#N)c(N3CC4C[C@H]3CN4c3cccnc3)n2)cn1` (stereo in doubt) [Compound 1-6, 2-(1-methyl-1H-pyrazol-4-yl)-4-[(1S,4R)-5-pyridin-3-yl-2,5-diazabicyclo[2.2.1]hept-2-yl]pyrimidine-5-carbonitrile] showed an IC50 at PI3Kdelta of 110 nM. Moreover, the “Selectivity versus PI3Kalpha” value at PI3Kalpha is on record as above 10.

The molecule `Cn1cc(-c2ncc(C#N)c(N3CC4C[C@H]3CN4c3cccc(OCCF)c3)n2)cn1` (stereo in doubt) [Compound 1-8, 4-{(1S,4R)-5-[3-(2-fluoroethoxy)phenyl]-2,5-diazabicyclo[2.2.1]hept-2-yl}-2-(1-methyl-1H-pyrazol-4-yl)pyrimidine-5-carbonitrile] came in with an IC50 on PI3Kdelta of 79 nM. Further, the “Selectivity versus PI3Kalpha” value at PI3Kalpha was above 10.

With `Cn1cc(-c2ncc(C#N)c(N3CC4C[C@H]3CN4c3cccc(-n4cccc4)c3)n2)cn1` (stereo in doubt) [Compound 1-9, 2-(1-methyl-1H-pyrazol-4-yl)-4-{(1S,4R)-5-[3-(1H-pyrrol-1-yl)phenyl]-2,5-diazabicyclo[2.2.1]hept-2-yl}pyrimidine-5-carbonitrile], inhibition on PI3Kdelta was half-maximal at 90 nM (IC50). In addition, the “Selectivity versus PI3Kalpha” value at PI3Kalpha is recorded as above 10.

For `Cn1cc(-c2ncc(C#N)c(N3CC4C[C@H]3CN4c3cccc([N+](=O)[O-])c3)n2)cn1` (stereo in doubt) [Compound 1-10, 2-(1-methyl-1H-pyrazol-4-yl)-4-[(1S,4R)-5-(3-nitrophenyl)-2,5-diazabicyclo[2.2.1]hept-2-yl]pyrimidine-5-carbonitrile], the “Selectivity versus PI3Kalpha” value on PI3Kalpha is listed as above 10.

Take `Cn1cc(-c2ncc(C#N)c(N3CC4C[C@H]3CN4c3cccc(C4CC4)c3)n2)cn1` (stereo in doubt) [Compound 1-11, 4-[(1S,4R)-5-(3-cyclopropylphenyl)-2,5-diazabicyclo[2.2.1]hept-2-yl]-2-(1-methyl-1H-pyrazol-4-yl)pyrimidine-5-carbonitrile]: at PI3Kdelta, it took 130 nM to reach half-maximal inhibition (IC50). Also, the “Selectivity versus PI3Kalpha” value at PI3Kalpha is above 10.

For `Cn1cc(-c2ncc(C#N)c(N3CC4C[C@H]3CN4c3cccc(C4(C)CC4)c3)n2)cn1` (stereo in doubt) [Compound 1-12, 4-{(1S,4R)-5-[3-(1-methylcyclopropyl)phenyl]-2,5-diazabicyclo[2.2.1]hept-2-yl}-2-(1-methyl-1H-pyrazol-4-yl)pyrimidine-5-carbonitrile], the IC50 at PI3Kdelta was 410 nM. The “Selectivity versus PI3Kalpha” value on PI3Kalpha is recorded as above 10.

The molecule `CNC(=O)c1cccc(N2C[C@@H]3CC2CN3c2nc(-c3cnn(C)c3)ncc2C#N)c1` (stereo in doubt) [Compound 1-13, 3-{(1R,4S)-5-[5-cyano-2-(1-methyl-1H-pyrazol-4-yl)pyrimidin-4-yl]-2,5-diazabicyclo[2.2.1]hept-2-yl}-N-methylbenzamide] displayed an IC50 at PI3Kdelta of 97 nM. In addition, the “Selectivity versus PI3Kalpha” value at PI3Kalpha is above 10.

On PI3Kdelta, `COc1cccc(N2C[C@@H]3CC2CN3c2nc(-c3cnn(C)c3)ncc2C#N)c1` (stereo in doubt) [Compound 1-14, 4-[(1S,4R)-5-(3-methoxyphenyl)-2,5-diazabicyclo[2.2.1]hept-2-yl]-2-(1-methyl-1H-pyrazol-4-yl)pyrimidine-5-carbonitrile] registered a 50% inhibitory concentration (IC50) of 71 nM. Further, the “Selectivity versus PI3Kalpha” value at PI3Kalpha is above 10.

`Cn1cc(-c2ncc(C#N)c(N3CC4C[C@H]3CN4c3cccc(S(C)(=O)=O)c3)n2)cn1` (stereo in doubt) [Compound 1-15, 2-(1-methyl-1H-pyrazol-4-yl)-4-{(1S,4R)-5-[3-(methylsulfonyl)phenyl]-2,5-diazabicyclo[2.2.1]hept-2-yl}pyrimidine-5-carbonitrile] had an IC50 against PI3Kdelta of 27 nM. Further, the “Selectivity versus PI3Kalpha” value at PI3Kalpha is listed as above 10.

On to `N#Cc1cnc(-c2ccnc3[nH]ccc23)nc1N1C[C@@H]2CC1CN2c1cccc(F)c1` (stereo in doubt) [Compound 1-17, 4-[(1R,4S)-5-(3-fluorophenyl)-2,5-diazabicyclo[2.2.1]hept-2-yl]-2-(1H-pyrrolo[2,3-b]pyridin-4-yl)pyrimidine-5-carbonitrile], for which the IC50 at PI3Kdelta was determined as 56 nM. Besides, the “Selectivity versus PI3Kalpha” value at PI3Kalpha is above 10.

Molecule `N#Cc1cnc(-c2cnc3[nH]ccc3c2)nc1N1C[C@@H]2CC1CN2c1cccc(F)c1` (stereo in doubt) [Compound 1-18, 4-[(1R,4S)-5-(3-fluorophenyl)-2,5-diazabicyclo[2.2.1]hept-2-yl]-2-(1H-pyrrolo[2,3-b]pyridin-5-yl)pyrimidine-5-carbonitrile] gave an IC50 on PI3Kdelta of 920 nM. Further, the “Selectivity versus PI3Kalpha” value at PI3Kalpha stood at 8.

As to `Cc1cncc(-c2ncc(C#N)c(N3C[C@@H]4CC3CN4c3cccc(F)c3)n2)c1` (stereo in doubt) [Compound 1-19, 4-[(1R,4S)-5-(3-fluorophenyl)-2,5-diazabicyclo[2.2.1]hept-2-yl]-2-(5-methylpyridin-3-yl)pyrimidine-5-carbonitrile], the concentration for half-maximal inhibition (IC50) on PI3Kdelta came out at 290 nM. Further, the “Selectivity versus PI3Kalpha” value on PI3Kalpha is recorded as above 10.

As to `Cn1cc(-c2ncc(C#N)c(N3C[C@H]4C[C@H]3CN4c3cccc([N+](=O)[O-])c3)n2)cn1` [Compound 1-10, 2-(1-methyl-1H-pyrazol-4-yl)-4-[(1S,4R)-5-(3-nitrophenyl)-2,5-diazabicyclo[2.2.1]hept-2-yl]pyrimidine-5-carbonitrile], at PI3Kdelta, the IC50 stood at 38 nM.
